# According to patent US8088819B2, “Derivatives of substituted 3-phenyl-1-(phenylthienyl)propan-1-ones and of 3-phenyl-1-(phenylfuranyl) propan-1-ones, preparation and use” (priority 2006, dated 2012):
# Tests used:
# hPPARalpha [1] = molecular target: T1, hPPARalpha (Homo sapiens, UniProt Q07869); assay: PPAR activation: Gal4-hPPARα chimera luciferase transactivation in COS-7 cells, Method 2; assay type: cell-based; conditions: COS-7, 24 h; for EC50: 1% Ultroser; for Emax: maximum percentage response relative to the reference phenofibric acid, read-out: hPPARalpha % max
# T1 construct: expressed in transfected cells; host or cells: COS-7 (monkey kidney fibroblasts)
# T1 sequence (Q07869 239-466 limits assumed): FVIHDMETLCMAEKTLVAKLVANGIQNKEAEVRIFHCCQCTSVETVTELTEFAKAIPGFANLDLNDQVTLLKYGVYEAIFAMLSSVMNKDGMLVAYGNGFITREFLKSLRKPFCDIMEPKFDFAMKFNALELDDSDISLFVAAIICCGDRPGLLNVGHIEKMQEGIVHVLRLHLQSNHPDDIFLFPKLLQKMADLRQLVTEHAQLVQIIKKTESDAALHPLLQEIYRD
# Method in brief: (§1)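 COS-7 cells were transfected with Gal4-PPAR LBD chimera plus Gal4(RE)_TkpGL3 luciferase reporter (1/10) and seeded serum-free for 4 h. Compounds at 10^−5 to 100 μm were applied for 24 h at 37° C in 1% lipid-free synthetic serum. Luciferase was read after lysis, and EC50 derived.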
# hPPARgamma [2] = molecular target: T2, hPPARgamma (Homo sapiens, UniProt P37231); assay: PPAR activation: Gal4-hPPARγ chimera luciferase transactivation in COS-7 cells, Method 2; assay type: cell-based; conditions: COS-7, 24 h, Method 2; for Emax: maximum percentage response relative to the reference rosiglitazone, read-out: hPPARgamma % max; for EC50: 1% Ultroser, read-out: hPPARgamma EC50
# T2 construct: expressed in transfected cells; host or cells: COS-7 (monkey kidney fibroblasts)
# T2 sequence (P37231 238-503 limits assumed): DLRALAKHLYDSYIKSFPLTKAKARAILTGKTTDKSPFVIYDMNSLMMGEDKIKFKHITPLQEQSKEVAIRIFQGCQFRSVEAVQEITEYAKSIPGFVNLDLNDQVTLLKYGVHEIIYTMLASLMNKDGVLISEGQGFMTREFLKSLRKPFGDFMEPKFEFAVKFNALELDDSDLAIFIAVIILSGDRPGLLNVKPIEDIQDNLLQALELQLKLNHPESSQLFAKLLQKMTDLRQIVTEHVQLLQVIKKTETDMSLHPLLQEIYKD
# Method in brief: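 Transactivation by a Gal4 DNA-binding domain–hPPARγ ligand-binding domain chimera with a Gal4(RE)-luciferase reporter, transfected into COS-7 cells (plasmid ratio 1/10).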
# hPPARdelta [3] = molecular target: T3, hPPARdelta (Homo sapiens, UniProt Q03181); assay: PPAR activation: Gal4-hPPARδ chimera luciferase transactivation in COS-7 cells, Method 2; assay type: cell-based; conditions: COS-7, 24 h; for EC50: 1% Ultroser; for Emax: maximum percentage response relative to the reference GW501516, read-out: hPPARdelta % max
# T3 construct: expressed in transfected cells; host or cells: COS-7 (monkey kidney fibroblasts)
# T3 sequence (Q03181 211-439 limits assumed): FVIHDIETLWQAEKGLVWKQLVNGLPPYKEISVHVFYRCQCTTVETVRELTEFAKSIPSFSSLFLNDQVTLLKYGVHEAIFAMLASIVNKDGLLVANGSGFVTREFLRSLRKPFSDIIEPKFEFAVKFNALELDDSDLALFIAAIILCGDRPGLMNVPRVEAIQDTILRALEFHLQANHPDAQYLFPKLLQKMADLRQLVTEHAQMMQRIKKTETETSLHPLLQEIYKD
# Method in brief: as §1
# [4] = tested on: target genes of PPARδ in murine myocytes (C2C12); assay: Expression of target genes of PPARδ (PDK4, CPT1b, UCP2, UCP3) in murine myocytes, quantitative RT-PCR; assay type: cell-based; conditions: murine myocytes in vitro
# From the text: It is established that regulation of the expression of these genes is directly controlled by PPARδ in this cell type. The more the expression of the genes is increased, the greater the stimulating action of the compound according to the invention on metabolism in the muscle cells.
# Cells from the murine cell line C2C12 (obtained from ECACC) are cultivated in DMEM medium (Gibco; 41965-039) with addition of 1% L-glutamine (Gibco; 25030), 1% of penicillin/streptomycin (VWR; BWSTL0022/100) and 10% decomplemented fetal calf serum (FCS. Gibco; 10270-106).
# The cells are seeded on 24-well plates at a density of 50·10^3 cells/well. At confluence, the medium is replaced with a differentiating medium (basal medium with addition of 2% of horse serum (Gibco; 26050-088)), then incubated at 37° C. and 5% CO2 for 4 days in order to differentiate them to myocytes.
# After 5 days of differentiation, the cells are put in a deprivation medium (basal medium without serum) for 6 hours. The cells are then treated with the compounds according to the invention in the deprivation medium. Compounds 2, 4, 7, 11, 39, 40, 46, 49 and 72 were in dose effect, corresponding to 1×, 10× and 100× their EC50 PPARδ. The compounds according to the invention were dissolved in dimethylsulfoxide (DMSO, Sigma; D5879). The cells were treated for 24 h at 37° C., 5% CO2. The effect of the compounds according to the invention was compared with the effect of DMSO alone.
# After treatment, the total RNA is extracted from the cells using the NucleoSpine® 96 RNA kit (Macherey Nagel, Hoerdt, France) following the manufacturer's instructions.
# 1 μg of total RNA (quantified based on the UV spectrophotometer reading) was then reverse-transcribed to complementary DNA by reaction for 1 hour at 37° C. in a total volume of 30 μl containing buffer 1× (Invitrogen), 1.5 mM of DTT, 0.18 mM of dNTPs (Promega), 200 ng of pdN6 (Amersham), 30 U of RNase inhibitor (Promega) and 1 μl of MMLV-RT (Invitrogen).
# The quantitative PCR experiments were carried out using the MyiQ Single-Color Real-Time PCR Detection System (Biorad, Marnes-la-Coquette, France) and were performed using the iQ SYBR Green Supermix kit following the supplier's recommendations, in 96-well plates, on 5 μl of diluted reverse-transcription reaction mixtures with a hybridization temperature of 60° C. Primer pairs specific to the PDK4, CPT1b, UCP2 and UCP3 genes under investigation were used:
# The amount of fluorescence emitted is directly proportional to the amount of complementary DNA present at the start of the reaction and amplified during PCR. For each target investigated, a range is produced by successive dilutions of a pool constituted of a few microliters of various reverse-transcription reaction mixtures. The relative expression levels of each target are thus determined using the efficacy curves obtained with the points in the range.
# The levels of expression of the genes of interest were then normalized relative to the level of expression of the reference gene 36B4 (whose specific primers are: sense primer: 5′-[…]-3′ (SEQ ID No. 19) and antisense primer: 5′-[…]-3′ (SEQ ID No. 20)). The induction factor, i.e. the ratio of the relative signal (induced by the compound according to the invention) to the mean of the relative values of the control group, was then calculated. The higher this factor, the greater the activating character of the compounds according to the invention with respect to gene expression. The final result is represented as the mean of the induction values in each experimental group.
# hPPARalpha [5] = molecular target: T1, hPPARalpha; assay: PPAR activation: Gal4-hPPARα chimera luciferase transactivation in COS-7 cells, Method 1; assay type: cell-based; conditions: COS-7, 24 h; for Emax: maximum percentage response relative to the reference phenofibric acid, read-out: hPPARalpha % max
# Procedure: (§2) The activation of the PPARs was evaluated in vitro on a line of monkey kidney fibroblasts (COS-7) by measuring the transcriptional activity of chimeras constituted of the DNA binding domain of the Gal4 transcription factor of yeast and the ligand binding domain of the various PPARs. The compounds were tested at doses between 10^−5 and […] on the chimeras Gal4-PPARα, γ or δ, and the corresponding EC50 values were determined.
# (§3) The COS-7 cells were obtained from the ATCC and were cultivated in DMEM medium supplemented with 10% (v/v) of fetal calf serum, 100 U/ml of penicillin (Gibco, Paisley, UK) and 2 mM of L-glutamine (Gibco, Paisley, UK). The cells were incubated at 37° C. in a humid atmosphere containing 5% CO2.
# (§4) The plasmids Gal4(RE)_TkpGL3, pGal4-hPPARα, pGal4-hPPARγ, pGal4-hPPARδ and pGal4-φ are described in the literature (Raspe E et al., 1999). The constructs pGal4-hPPARα, pGal4-hPPARγ and pGal4-hPPARδ were obtained by cloning DNA fragments amplified by PCR corresponding to the DEF domains of the human nuclear receptors PPARα, PPARγ and PPARδ in the pGal4-φ vector.
# (§5) The COS-7 cells in suspension were transfected with 150 ng of DNA per well, with a pGal4-PPAR/Gal4(RE)_TkpGL3 ratio of 1/10, in the presence of 10% fetal calf serum. The cells were seeded in 96-well plates (4×10^4 cells/well) and then incubated at 37° C. for 24 hours. Activation with the test compounds is carried out for 24 h at 37° C. in serum-free medium. At the end of the experiment, the cells were lysed and the luciferase activity was determined using the Steady-Lite™ HTS (Perkin Elmer) following the supplier's recommendations.
# hPPARgamma [6] = molecular target: T2, hPPARgamma; assay: PPAR activation: Gal4-hPPARγ chimera luciferase transactivation in COS-7 cells, Method 1; assay type: cell-based; conditions: COS-7, 24 h; for Emax: maximum percentage response relative to the reference rosiglitazone, read-out: hPPARgamma % max
# Procedure: as §2, §3, §4, §5
# hPPARdelta [7] = molecular target: T3, hPPARdelta; assay: PPAR activation: Gal4-hPPARδ chimera luciferase transactivation in COS-7 cells, Method 1; assay type: cell-based; conditions: COS-7, 24 h; for Emax: maximum percentage response relative to the reference GW501516, read-out: hPPARdelta % max
# Procedure: as §2, §3, §4, §5
EC50 (hPPARalpha [1]) [nM],Emax (hPPARalpha [1]) [%],Emax (hPPARgamma [2]) [%],EC50 (hPPARgamma [2]) [nM],EC50 (hPPARdelta [3]) [nM],Emax (hPPARdelta [3]) [%],melting point [°C],EC50 (hPPARalpha [5]) [nM],Emax (hPPARalpha [5]) [%],Emax (hPPARgamma [6]) [%],EC50 (hPPARdelta [7]) [nM],Emax (hPPARdelta [7]) [%],EC50 (hPPARgamma [6]) [nM],Compound,expression of genes involved in carbohydrate and lipid metabolism and in thermoregulation [4]
1010,36,52,550,6,90,75 to 77,,,,,,,"CC(C)(Oc1ccc(CCC(OCc2cccnc2)c2ccc(-c3ccc(C(F)(F)F)cc3)s2)c(Cl)c1Cl)C(=O)O (stereo not drawn) [Compound 39, 2-(2,3-dichloro-4-(3-(pyridin-3-ylmethoxy)-3-(5-(4-(trifluoromethyl)phenyl)thien-2-yl)propyl)phenoxy)-2-methylpropanoic acid]",stimulating effects
590,35,32,990,5,78.3,46 to 48,,,,,,,"COC(CCc1ccc(OC(C)(C)C(=O)O)c(Cl)c1Cl)c1ccc(-c2ccc(C(F)(F)F)cc2)s1 (stereo not drawn) [Compound 40, 2-(2,3-dichloro-4-(3-methoxy-3-(5-(4-(trifluoromethyl)phenyl)-thien-2-yl)propyl)phenoxy)-2-methylpropanoic acid]",stimulating effects
,,,,,,165 to 166,11,58,30,18,105,,"CC(C)(Oc1ccc(CCC(=O)c2ccc(-c3ccc(C(F)(F)F)cc3)s2)c(F)c1F)C(=O)O [Compound 46, 2-(2,3-difluoro-4-(3-oxo-3-(5-(4-(trifluoromethyl)phenyl)thien-2-yl)propyl)phenoxy)-2-methylpropanoic acid]",stimulating effects
,,,,,,157 to 158,,49,85,6,86,560,"Cc1cc(CCC(=O)c2ccc(-c3ccc(C(F)(F)F)cc3)s2)cc(C)c1OC(C)(C)C(=O)O [Compound 48, 2-(2,6-dimethyl-4-(3-oxo-3-(5-(4-(trifluoromethyl)phenyl)thien-2-yl)propyl)phenoxy)-2-methylpropanoic acid]",stimulating effects
